Experiments:
[1] = molecular target: Serine/threonine-protein kinase 32C (Homo sapiens) (UniProt Q86UX6); test: Selectivity interaction (LanthaScreen Eu Kinase Binding Assay) EUB0001632a STK32C; conditions: at 10 µM
[2] = molecular target: Serine/threonine-protein kinase 24 (Homo sapiens) (UniProt Q9Y6E0); test: Selectivity interaction (Kinase panel (Z-LYTE Assay)) EUB0001632a STK24; conditions: at 10 µM
[3] = molecular target: CDK4/Cyclin D3 (Homo sapiens) (UniProt P11802+P30281); test: (§1) Selectivity interaction (KinomeScan (DiscoverX)) EUB0000607a CDK4; assay type: protein-complex assay; conditions: at 10 µM
[4] = molecular target: Cyclin-dependent kinase 4/cyclin D1 (Homo sapiens) (UniProt P11802+P24385); test: as §1; assay type: protein-complex assay; conditions: at 10 µM
[5] = molecular target: T1, Tyrosine-protein kinase Mer (Homo sapiens) (UniProt Q12866); conditions: at 10 µM
T1 sequence (whole entry): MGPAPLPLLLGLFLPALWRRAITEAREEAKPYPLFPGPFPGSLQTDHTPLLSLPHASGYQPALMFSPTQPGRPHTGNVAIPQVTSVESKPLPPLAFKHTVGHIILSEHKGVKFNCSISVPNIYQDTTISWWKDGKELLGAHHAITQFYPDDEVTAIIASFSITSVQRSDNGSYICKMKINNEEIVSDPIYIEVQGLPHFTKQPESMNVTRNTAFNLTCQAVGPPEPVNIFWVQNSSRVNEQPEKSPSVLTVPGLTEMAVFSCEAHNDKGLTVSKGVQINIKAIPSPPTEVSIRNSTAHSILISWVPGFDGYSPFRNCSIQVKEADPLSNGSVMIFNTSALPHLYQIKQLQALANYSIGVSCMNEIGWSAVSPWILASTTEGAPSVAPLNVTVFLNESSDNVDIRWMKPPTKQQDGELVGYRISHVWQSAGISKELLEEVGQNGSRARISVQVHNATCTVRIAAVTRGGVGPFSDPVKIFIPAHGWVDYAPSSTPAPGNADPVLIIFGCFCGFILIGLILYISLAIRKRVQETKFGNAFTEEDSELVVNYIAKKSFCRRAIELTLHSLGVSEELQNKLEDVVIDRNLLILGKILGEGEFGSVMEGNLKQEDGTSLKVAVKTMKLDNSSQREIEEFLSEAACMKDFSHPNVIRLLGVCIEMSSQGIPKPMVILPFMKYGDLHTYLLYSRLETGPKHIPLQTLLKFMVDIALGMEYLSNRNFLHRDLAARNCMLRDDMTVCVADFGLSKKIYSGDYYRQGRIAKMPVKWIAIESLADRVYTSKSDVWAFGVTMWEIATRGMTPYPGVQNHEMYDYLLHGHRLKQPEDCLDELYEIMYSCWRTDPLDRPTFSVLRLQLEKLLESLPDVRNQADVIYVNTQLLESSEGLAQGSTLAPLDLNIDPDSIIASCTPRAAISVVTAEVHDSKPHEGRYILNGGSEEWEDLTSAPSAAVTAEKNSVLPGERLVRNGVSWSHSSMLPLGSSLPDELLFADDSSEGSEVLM

[6] = molecular target: CDK9/Cyclin K (Homo sapiens) (UniProt P50750+O75909); test: (§2) Selectivity interaction (ProQinase) EUB0000171b CDK9; assay type: protein-complex assay
[7] = molecular target: CDK9/cyclin T1 (Homo sapiens) (UniProt O60563+P50750); test: as §2; assay type: protein-complex assay
[8] = molecular target: Glycogen synthase kinase-3 alpha (Homo sapiens, UniProt P49840); test: Selectivity interaction (KinomeScan (DiscoverX)) EUB0001049a GSK3A; conditions: at 1 µM
Chain of Glycogen synthase kinase-3 alpha (P49840 2-483 limits assumed): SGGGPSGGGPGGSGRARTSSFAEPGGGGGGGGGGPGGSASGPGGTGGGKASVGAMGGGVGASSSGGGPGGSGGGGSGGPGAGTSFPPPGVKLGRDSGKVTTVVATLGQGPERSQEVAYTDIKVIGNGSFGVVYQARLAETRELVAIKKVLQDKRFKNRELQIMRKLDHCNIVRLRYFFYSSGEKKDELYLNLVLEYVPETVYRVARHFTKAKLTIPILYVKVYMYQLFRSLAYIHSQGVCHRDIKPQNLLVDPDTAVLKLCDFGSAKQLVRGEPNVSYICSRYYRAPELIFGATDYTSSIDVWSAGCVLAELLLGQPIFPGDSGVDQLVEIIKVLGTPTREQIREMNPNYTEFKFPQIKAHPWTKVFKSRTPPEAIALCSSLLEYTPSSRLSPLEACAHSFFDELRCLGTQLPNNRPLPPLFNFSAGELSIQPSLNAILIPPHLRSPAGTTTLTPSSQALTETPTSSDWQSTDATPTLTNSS

[9] = molecular target: Cyclin-dependent kinase 9 (Homo sapiens, UniProt P50750); test: Selectivity interaction (Ambit KINOMEscan and KiNATiv profiling in Jurkat cells) EUB0000090b CDK9; assay type: cell-based; conditions: at 1 µM
Chain of Cyclin-dependent kinase 9 (P50750 whole entry): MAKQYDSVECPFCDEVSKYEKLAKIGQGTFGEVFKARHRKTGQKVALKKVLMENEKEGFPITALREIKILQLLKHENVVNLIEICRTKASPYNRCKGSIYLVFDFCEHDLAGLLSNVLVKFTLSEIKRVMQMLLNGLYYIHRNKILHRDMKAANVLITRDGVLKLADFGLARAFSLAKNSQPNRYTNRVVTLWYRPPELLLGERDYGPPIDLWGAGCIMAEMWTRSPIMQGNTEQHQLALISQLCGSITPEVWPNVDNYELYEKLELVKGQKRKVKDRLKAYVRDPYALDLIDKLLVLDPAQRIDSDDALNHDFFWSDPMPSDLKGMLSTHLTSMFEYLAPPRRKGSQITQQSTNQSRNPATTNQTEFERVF

[10] = molecular target: Serine/threonine-protein kinase 10 (Homo sapiens) (UniProt O94804); test: Selectivity interaction (KinomeScan (DiscoverX)) EUB0000045b STK10
Chain of Serine/threonine-protein kinase 10 (Homo sapiens) (O94804 whole entry, looked up): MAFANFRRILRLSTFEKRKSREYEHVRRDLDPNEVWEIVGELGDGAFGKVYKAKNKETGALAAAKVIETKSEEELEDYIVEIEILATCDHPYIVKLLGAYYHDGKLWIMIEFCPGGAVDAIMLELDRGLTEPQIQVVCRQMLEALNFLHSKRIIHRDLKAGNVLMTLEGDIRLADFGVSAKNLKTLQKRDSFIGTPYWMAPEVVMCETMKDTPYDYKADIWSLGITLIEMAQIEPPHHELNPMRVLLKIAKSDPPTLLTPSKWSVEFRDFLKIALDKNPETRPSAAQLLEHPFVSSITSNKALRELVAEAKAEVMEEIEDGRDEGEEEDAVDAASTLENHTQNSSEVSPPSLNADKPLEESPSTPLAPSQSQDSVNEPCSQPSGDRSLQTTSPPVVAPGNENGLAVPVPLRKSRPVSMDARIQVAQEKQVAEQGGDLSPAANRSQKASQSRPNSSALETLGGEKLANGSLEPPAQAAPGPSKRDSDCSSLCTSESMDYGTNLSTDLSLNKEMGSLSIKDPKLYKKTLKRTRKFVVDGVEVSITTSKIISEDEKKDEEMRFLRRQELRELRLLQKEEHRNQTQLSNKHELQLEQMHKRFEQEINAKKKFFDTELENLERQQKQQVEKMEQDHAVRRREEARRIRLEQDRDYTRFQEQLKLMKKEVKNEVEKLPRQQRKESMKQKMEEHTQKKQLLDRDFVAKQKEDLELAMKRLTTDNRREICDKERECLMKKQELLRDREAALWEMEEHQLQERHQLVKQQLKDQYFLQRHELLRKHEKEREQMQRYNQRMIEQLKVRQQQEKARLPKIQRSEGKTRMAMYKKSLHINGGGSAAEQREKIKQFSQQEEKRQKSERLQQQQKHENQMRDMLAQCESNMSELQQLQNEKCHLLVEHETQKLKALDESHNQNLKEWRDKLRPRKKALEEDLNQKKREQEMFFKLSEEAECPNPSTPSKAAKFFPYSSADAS

[11] = molecular target: T2, Mitogen-activated protein kinase 15 (Homo sapiens) (UniProt Q8TD08); test: Selectivity interaction (KinomeScan (DiscoverX)) EUB0001079a MAPK15; conditions: at 1 µM
T2 sequence (whole entry): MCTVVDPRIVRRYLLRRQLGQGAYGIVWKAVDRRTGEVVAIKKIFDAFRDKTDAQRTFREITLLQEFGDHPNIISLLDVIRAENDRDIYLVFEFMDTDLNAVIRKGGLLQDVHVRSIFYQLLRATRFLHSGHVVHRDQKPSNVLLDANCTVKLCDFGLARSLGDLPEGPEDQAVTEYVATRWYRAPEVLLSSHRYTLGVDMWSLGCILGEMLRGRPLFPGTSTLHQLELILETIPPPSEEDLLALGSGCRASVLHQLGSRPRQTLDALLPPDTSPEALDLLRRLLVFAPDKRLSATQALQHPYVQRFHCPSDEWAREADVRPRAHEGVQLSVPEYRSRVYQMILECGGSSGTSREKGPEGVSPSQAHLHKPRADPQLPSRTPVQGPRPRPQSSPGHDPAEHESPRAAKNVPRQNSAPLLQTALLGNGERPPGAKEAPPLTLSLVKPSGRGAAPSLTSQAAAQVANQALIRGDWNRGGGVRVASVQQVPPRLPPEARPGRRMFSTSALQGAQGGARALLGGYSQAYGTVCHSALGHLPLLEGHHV

[12] = molecular target: Serine/threonine-protein kinase WNK1 (Homo sapiens) (UniProt Q9H4A3); test: Selectivity interaction (KinomeScan (DiscoverX)) EUB0001079a WNK1; conditions: at 1 µM
Chain of Serine/threonine-protein kinase WNK1 (Homo sapiens) (Q9H4A3 whole entry, looked up): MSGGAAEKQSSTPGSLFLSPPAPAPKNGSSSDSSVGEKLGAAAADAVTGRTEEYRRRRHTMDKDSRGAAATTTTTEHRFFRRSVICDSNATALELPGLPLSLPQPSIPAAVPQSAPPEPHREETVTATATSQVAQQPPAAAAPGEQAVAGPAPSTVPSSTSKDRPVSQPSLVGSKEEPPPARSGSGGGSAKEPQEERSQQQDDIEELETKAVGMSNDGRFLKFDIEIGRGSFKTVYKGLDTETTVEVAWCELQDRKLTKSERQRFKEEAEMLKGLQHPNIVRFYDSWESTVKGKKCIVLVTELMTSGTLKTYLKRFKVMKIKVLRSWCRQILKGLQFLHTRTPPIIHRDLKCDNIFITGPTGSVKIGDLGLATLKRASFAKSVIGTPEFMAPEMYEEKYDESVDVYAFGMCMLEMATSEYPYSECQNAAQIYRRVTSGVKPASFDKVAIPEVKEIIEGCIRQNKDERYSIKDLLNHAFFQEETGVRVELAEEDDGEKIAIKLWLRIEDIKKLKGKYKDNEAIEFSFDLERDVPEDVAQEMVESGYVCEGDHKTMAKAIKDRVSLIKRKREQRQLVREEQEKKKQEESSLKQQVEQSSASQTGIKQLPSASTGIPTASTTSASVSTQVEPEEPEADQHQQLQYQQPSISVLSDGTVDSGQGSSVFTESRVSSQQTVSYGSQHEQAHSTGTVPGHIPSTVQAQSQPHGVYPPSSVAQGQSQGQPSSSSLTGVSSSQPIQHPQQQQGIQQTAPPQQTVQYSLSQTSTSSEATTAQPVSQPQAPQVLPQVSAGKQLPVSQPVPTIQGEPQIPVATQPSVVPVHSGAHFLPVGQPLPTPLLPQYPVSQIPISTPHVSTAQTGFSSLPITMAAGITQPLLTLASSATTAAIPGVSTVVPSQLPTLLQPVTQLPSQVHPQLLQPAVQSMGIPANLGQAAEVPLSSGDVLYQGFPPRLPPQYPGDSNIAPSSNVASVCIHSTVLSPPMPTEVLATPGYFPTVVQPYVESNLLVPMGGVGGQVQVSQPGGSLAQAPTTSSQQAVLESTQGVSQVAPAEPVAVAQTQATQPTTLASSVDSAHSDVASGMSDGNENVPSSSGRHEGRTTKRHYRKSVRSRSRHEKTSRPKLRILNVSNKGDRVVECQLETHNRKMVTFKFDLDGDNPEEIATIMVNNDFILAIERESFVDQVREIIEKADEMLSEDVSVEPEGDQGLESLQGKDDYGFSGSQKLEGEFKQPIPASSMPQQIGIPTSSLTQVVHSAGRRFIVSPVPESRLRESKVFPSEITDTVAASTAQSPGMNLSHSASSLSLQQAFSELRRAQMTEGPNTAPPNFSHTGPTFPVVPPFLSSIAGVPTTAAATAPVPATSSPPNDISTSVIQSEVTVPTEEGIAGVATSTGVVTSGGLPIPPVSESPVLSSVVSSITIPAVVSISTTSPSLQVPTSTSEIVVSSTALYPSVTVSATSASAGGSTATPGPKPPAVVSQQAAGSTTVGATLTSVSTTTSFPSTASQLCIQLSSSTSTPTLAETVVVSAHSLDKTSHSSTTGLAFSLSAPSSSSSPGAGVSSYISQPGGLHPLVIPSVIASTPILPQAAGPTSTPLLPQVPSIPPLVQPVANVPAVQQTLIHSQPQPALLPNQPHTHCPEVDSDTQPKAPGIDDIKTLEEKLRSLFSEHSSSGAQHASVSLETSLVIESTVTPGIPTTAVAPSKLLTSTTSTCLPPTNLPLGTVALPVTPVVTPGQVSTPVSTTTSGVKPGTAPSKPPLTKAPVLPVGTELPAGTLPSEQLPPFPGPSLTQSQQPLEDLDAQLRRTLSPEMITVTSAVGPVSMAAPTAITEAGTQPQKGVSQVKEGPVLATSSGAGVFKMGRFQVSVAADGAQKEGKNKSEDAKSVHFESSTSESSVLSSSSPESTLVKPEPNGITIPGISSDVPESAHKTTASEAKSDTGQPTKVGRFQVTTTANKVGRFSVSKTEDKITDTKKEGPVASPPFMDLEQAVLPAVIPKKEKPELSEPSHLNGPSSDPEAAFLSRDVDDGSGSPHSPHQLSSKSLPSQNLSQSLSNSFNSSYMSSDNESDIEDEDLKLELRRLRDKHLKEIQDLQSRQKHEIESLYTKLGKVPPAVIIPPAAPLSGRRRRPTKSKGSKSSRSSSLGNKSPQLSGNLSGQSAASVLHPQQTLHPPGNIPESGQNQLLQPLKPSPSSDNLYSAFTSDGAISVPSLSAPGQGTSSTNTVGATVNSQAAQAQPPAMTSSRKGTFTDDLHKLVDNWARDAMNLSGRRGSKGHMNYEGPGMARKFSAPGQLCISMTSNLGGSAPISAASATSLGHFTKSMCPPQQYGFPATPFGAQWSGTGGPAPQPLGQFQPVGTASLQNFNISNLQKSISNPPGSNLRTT

[13] = molecular target: T3, Serine/threonine-protein kinase ULK3 (Homo sapiens) (UniProt Q6PHR2); test: Selectivity interaction (KinomeScan (DiscoverX)) EUB0001550a ULK3; conditions: at 1 µM
T3 sequence (whole entry): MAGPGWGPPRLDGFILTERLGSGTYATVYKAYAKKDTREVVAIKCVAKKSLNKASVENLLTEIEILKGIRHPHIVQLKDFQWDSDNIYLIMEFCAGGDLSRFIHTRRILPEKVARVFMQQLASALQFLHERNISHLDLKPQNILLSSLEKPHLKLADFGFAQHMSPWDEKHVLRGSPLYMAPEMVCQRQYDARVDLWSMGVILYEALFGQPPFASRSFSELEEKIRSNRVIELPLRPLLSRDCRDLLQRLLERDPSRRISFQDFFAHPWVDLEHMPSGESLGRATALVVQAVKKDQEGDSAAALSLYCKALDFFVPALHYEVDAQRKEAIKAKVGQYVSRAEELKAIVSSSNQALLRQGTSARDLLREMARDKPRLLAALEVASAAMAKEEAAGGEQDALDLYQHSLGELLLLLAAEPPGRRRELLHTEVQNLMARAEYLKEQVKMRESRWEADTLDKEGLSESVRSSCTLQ

[14] = molecular target: Cyclin-dependent kinase 2 (Homo sapiens, UniProt P24941); test: Selectivity interaction (KinomeScan (DiscoverX)) EUB0000229b CDK2; conditions: at 10 µM
[15] = molecular target: Calcium/calmodulin-dependent protein kinase type II subunit delta (Homo sapiens) (UniProt Q13557); test: Selectivity interaction (KinomeScan (DiscoverX)) EUB0001619a CAMK2D; conditions: at 1 µM

Chain of Serine/threonine-protein kinase 32C (Homo sapiens) (Q86UX6 whole entry): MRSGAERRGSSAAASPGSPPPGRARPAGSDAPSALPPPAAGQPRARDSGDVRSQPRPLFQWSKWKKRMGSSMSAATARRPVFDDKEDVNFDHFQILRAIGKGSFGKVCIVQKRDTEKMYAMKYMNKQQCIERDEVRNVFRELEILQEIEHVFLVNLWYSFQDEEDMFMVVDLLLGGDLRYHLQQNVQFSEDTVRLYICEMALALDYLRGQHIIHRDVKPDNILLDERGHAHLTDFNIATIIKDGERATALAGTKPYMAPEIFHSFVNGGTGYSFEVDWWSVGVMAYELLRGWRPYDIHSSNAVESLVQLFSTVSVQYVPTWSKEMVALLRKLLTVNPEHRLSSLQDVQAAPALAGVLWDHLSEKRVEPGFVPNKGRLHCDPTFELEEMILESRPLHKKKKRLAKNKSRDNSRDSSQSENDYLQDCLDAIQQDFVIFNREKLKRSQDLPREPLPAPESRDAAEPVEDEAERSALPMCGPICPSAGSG

Cn1cc(-n2cnc3c(NCc4nc5cc(Cl)c(Cl)cc5[nH]4)nc(N4CCOCC4)nc32)cn1
% of inhibition [1]: -34.6%
% of control [2]: 1.16%

CNC(=O)Nc1ccc(-c2nc(N3CC4CCC(C3)O4)c3cnn(C4CCC5(CC4)OCCO5)c3n2)cc1
% of control [3]: 92%
% of control [4]: 90%

CCN(CC)CCCCNc1ncc2cc(-c3cc(OC)cc(OC)c3)c(NC(=O)NC(C)(C)C)nc2n1
% of control [5]: 100%

C=CC(=O)Nc1cccc(C(=O)Nc2ccc(Nc3cc(-c4[nH]c(SC)nc4C)ccn3)cc2)c1
% of control ([6]; at 1 µM): 85%
% of control ([6]; at 5 µM): 39%
% of control ([7]; at 1 µM): 63%
% of control ([7]; at 5 µM): 38%

COc1cc(Nc2nc(C)cc(-c3cnn4nc(OC)ccc34)n2)cc(C(F)(F)F)c1
% of control [8]: 100%

CN(C)C/C=C/C(=O)Nc1ccc(C(=O)N2CCCC(Nc3ncc(Cl)c(-c4c[nH]c5ccccc45)n3)C2)cc1 (stereo not drawn)
% of control [9]: 58%

C=CC(=O)Nc1cc(-n2c(=O)ccc3cnc4ccc(-c5ccc(NS(C)(=O)=O)cc5)cc4c32)ccc1C
% of control ([10]; at 1 µM): 87%
% of control ([10]; at 10 µM): 100%

Nc1cnc(N2CCc3cc(S(=O)(=O)Nc4c(F)cc(Cl)cc4F)cc(N4CCCC4=O)c32)nc1 [TP-020n]
% of control [11]: 84%
% of control [12]: 100%

CN(C)CC#Cc1ccc2[nH]c3c(c2c1)-c1nc(N)ncc1CCC3
% of control [13]: 11%

COc1cc(N(C)c2ccnc3ccc(C(F)(F)F)cc23)cc(OC)c1OC
% binding [14]: 100%

N#Cc1cccc(-c2c[nH]c3ncnc(N4CCOCC4)c23)c1
% of control [15]: 80%

Source: ChEMBL document CHEMBL5465560, “Selectivity Literature for EUbOPEN Chemogenomic Library” (2024)
